Measurements as given in patent US7199131B2, “Sulfonamide and sulfamide substituted imidazoquinolines” (3M Innovative Properties Company, priority 2001, dated 2007).
Where a name gives a salt, the structure may show the parent alone.

Legend:
interferon (α) = assay: Cytokine Induction in Human Cells: interferon (α) secreted by PBMCs, ELISA; assay type: cell-based; details: PBMC, incubated 18 to 24 hours, lowest concentration found to induce interferon
Text: (§1) An in vitro human blood cell system was used to assess cytokine induction by compounds of the invention. Activity is based on the measurement of interferon and tumor necrosis factor (α) (IFN and TNF, respectively) secreted into culture media as described by Testerman et. al. In “Cytokine Induction by the Immunomodulators Imiquimod and S-27609”, Journal of Leukocyte Biology, 58, 365–372 (September, 1995).
(§2) Whole blood is collected by venipuncture into EDTA vacutainer tubes from healthy human donors. Peripheral blood mononuclear cells (PBMCs) are separated from whole blood by density gradient centrifugation using Histopaque®-1077 (Sigma Chemicals, St. Louis, Mo.). The PBMCs are suspended at 3–4×10^6 cells/mL in RPMI 1640 medium containing 10% fetal bovine serum, 2 mM L-glutamine and 1% penicillin/streptomycin solution (RPMI complete). The PBMC suspension is added to 48 well flat bottom sterile tissue culture plates (Costar, Cambridge, Mass. or Becton Dickinson Labware, Lincoln Park, N.J.) containing an equal volume of RPMI complete media containing test compound.
(§3) The compounds are solubilized in dimethyl sulfoxide (DMSO). The DMSO concentration should not exceed a final concentration of 1% for addition to the culture wells.
(§4) The solution of test compound is added at 60 μM to the first well containing RPMI complete and serial (three fold or ten fold) dilutions are made. The PBMC suspension is then added to the wells in an equal volume, bringing the test compound concentrations to the desired range. The final concentration of PBMC suspension is 1.5–2×10^6 cells/mL. The plates are covered with sterile plastic lids, mixed gently and then incubated for 18 to 24 hours at 37° C. in a 5% carbon dioxide atmosphere.
(§5) Following incubation the plates are centrifuged for 5–10 minutes at 1000 rpm (˜200×g) at 4° C. The cell culture supernatant is removed with a sterile polypropylene pipette and transferred to sterile polypropylene tubes. Samples are maintained at −30 to −70° C. until analysis. The samples are analyzed for interferon (α) and tumor necrosis factor (α) by ELISA
Interferon (α) concentration is determined by ELISA using a Human Multi-Species kit from PBL Biomedical Laboratories, New Brunswick, N.J.
(§6) The table below lists the lowest concentration found to induce interferon and the lowest concentration found to induce tumor necrosis factor for each compound.

[1] = test system: tumor necrosis factor (α); assay: Cytokine Induction in Human Cells: tumor necrosis factor (α) secreted by PBMCs, ELISA; assay type: cell-based; details: PBMC, incubated 18 to 24 hours, lowest concentration found to induce tumor necrosis factor
Text: as §1, §2, §3, §4, §5
Tumor necrosis factor (α) (TNF) concentration is determined using ELISA kits available from Genzyme, Cambridge, Mass.; R&D Systems, Minneapolis, Minn.; or Pharmingen, San Diego, Calif.
as §6

Compound | melting point | minimal effective concentration (interferon (α)) | minimal effective concentration [1]
CCc1nc2c(N)nc3ccccc3c2n1CCCCNS(=O)(=O)c1ccccc1 [Example 232, N-[4-(4-amino-2-ethyl-1H-imidazo[4,5-c]quinolin-1-yl)butyl]benzenesulfonamide] | 180.6 to 182 °C | 0.12 µM | 1.11 µM
CCCc1nc2c(N)nc3ccccc3c2n1CCCCNS(=O)(=O)c1ccccc1 [Example 233, N-[4-(4-amino-2-propyl-1H-imidazo[4,5-c]quinolin-1-yl)butyl]benzenesulfonamide] | 158.8 to 160.8 °C | 0.37 µM | 1.11 µM
CCCCCCc1nc2c(N)nc3ccccc3c2n1CCCCNS(=O)(=O)c1ccccc1 [Example 234, N-[4-(4-amino-2-hexyl-1H-imidazo[4,5-c]quinolin-1-yl)butyl]benzenesulfonamide] | 84.8 to 85.4 °C | 1.11 µM | 1.11 µM
Cc1nc2c(N)nc3ccccc3c2n1CCCCNS(=O)(=O)c1ccccc1 [Example 237, N-[4-(4-amino-2-methyl-1H-imidazo[4,5-c]quinolin-1-yl)butyl]benzenesulfonamide] | 215.4 to 216 °C | 0.37 µM | 0.04 µM
Cc1nc2c(N)nc3ccccc3c2n1CCCCNS(C)(=O)=O [Example 238, N-[4-(4-amino-2-methyl-1H-imidazo[4,5-c]quinolin-1-yl)butyl]methanesulfonanide] | 229.4 to 230.5 °C | 0.04 µM | 0.37 µM
CCCCc1nc2c(N)nc3ccccc3c2n1CCCNS(=O)(=O)c1ccccc1 [Example 240, N-[3-(4-amino-2-butyl-1H-imidazo[4,5-c]quinolin-1-yl)propyl]benzenesulfonamide] | 210.5 to 212 °C | 0.37 µM | 3.33 µM
CCCCCCc1nc2c(N)nc3ccccc3c2n1CCCCNS(C)(=O)=O [Example 241, N-[4-(4-amino-2-hexyl-1H-imidazo[4,5-c]quinolin-1-yl)butyl]methanesulfonamide] | 170.2 to 171.1 °C | 0.12 µM | 1.11 µM
COCCc1nc2c(N)nc3ccccc3c2n1CCCCCCCCNS(=O)(=O)c1ccccc1 [Example 242, N-{8-[4-amino-2-(2-methoxyethyl)-1H-imidazo[4,5-c]quinolin-1-yl]octyl}benzenesulfonamide] | 146 to 149 °C | 0.01 µM | 0.01 µM
CCCCc1nc2c(N)nc3ccccc3c2n1CCCCCCCCNS(C)(=O)=O [Example 244, N-[8-(4-amino-2-butyl-1H-imidazo[4,5-c]quinolin-1-yl)octyl]methanesulfonamide] | 121 to 124 °C | 0.01 µM | 0.01 µM
CCCCc1nc2c(N)nc3ccccc3c2n1CCCNS(=O)(=O)c1ccc(C)cc1 [Example 246, N-[3-(4-amino-2-butyl-1H-imidazo[4,5-c]quinolin-1-yl)propyl]-4-methylbenzenesulfonamide] | 197 to 198.5 °C | 1.11 µM | 3.33 µM
CCCCc1nc2c(N)nc3ccccc3c2n1CCCCCCCCNS(=O)(=O)c1ccccc1 [Example 248, N-[8-(4-amino-2-butyl-1H-imidazo[4,5-c]quinolin-1-yl)octyl]benzenesulfonamide] | 143 to 144 °C | 0.12 µM | 0.01 µM
COCCc1nc2c(N)nc3ccccc3c2n1CCCNS(=O)(=O)c1ccccc1 [Example 249, N-(3-[4-amino-2-(2-methoxyethyl)-1H-imidazo[4,5-c]quinolin-1-yl]propyl)benzenesulfonamide] | 149 to 151 °C | 0.01 µM | 1.11 µM
CCOCc1nc2c(N)nc3ccccc3c2n1CCCNS(C)(=O)=O [Example 255, N-{3-[4-amino-2-(ethoxymethyl)-1H-imidazo[4,5-c]quinolin-1-yl]propyl}methanesulfonamide] | 208.2 to 209.6 °C | 0.12 µM | 3.33 µM
COCCc1nc2c(N)nc3ccccc3c2n1CC(C)(C)CNS(C)(=O)=O [Example 256, N-{3-[4-amino-2-(2-methoxyethyl)-1H-imidazo[4,5-c]quinolin-1-yl]-2,2-dimethylpropyl}methanesulfonamide] | 204 to 206 °C | 0.01 µM | 0.04 µM
Cc1nc2c(N)nc3c(c2n1CCCCNS(C)(=O)=O)CCCC3 [Example 263, N-[4-(4-amino-2-methyl-6,7,8,9-tetrahydro-1H-imidazo[4,5-c]quinolin-1-yl)butyl]methanesulfonamide hydrochloride] |  | 0.12 µM | > 30 µM

More lines, main results first:

melting point | Compound | minimal effective concentration (interferon (α)) | minimal effective concentration [1]
186.5 to 187.9 °C | CCCc1nc2c(N)nc3ccccc3c2n1CCCCNS(C)(=O)=O [Example 235, N-[4-(4-amino-2-propyl-1H-imidazo[4,5-c]quinolin-1-yl)butyl]methanesulfonamide] | 0.04 µM | 1.11 µM
239.2 to 240.8 °C | CCCCc1nc2c(N)nc3ccccc3c2n1CCCNS(C)(=O)=O [Example 239, N-[3-(4-amino-2-butyl-1H-imidazo[4,5-c]quinolin-1-yl)propyl]methanesulfonamide] | 0.01 µM | 1.11 µM
109 to 110 °C | COCCc1nc2c(N)nc3ccccc3c2n1CCCCCCCCNS(C)(=O)=O [Example 243, N-{8-[4-amino-2-(2-methoxyethyl)-1H-imidazo[4,5-c]quinolin-1-yl]octyl}methanesulfonamide] | 0.01 µM | 0.01 µM
216.5 to 217.5 °C | CCCCc1nc2c(N)nc3ccccc3c2n1CCCNS(=O)(=O)c1cccc2c(N(C)C)cccc12 [Example 245, N-[3-(4-amino-2-butyl-1H-imidazo[4,5-c]quinolin-1-yl)propyl]-5-(dimethylamino)naphthalene-1-sulfonamide] | 3.33 µM | > 30 µM
193 to 194 °C | COCCc1nc2c(N)nc3ccccc3c2n1CCCNS(C)(=O)=O [Example 247, N-{3-[4-amino-2-(2-methoxyethyl)-1H-imidazo[4,5-c]quinolin-1-yl]propyl}methanesulfonamide] | 0.01 µM | 0.01 µM
153 to 155 °C | CS(=O)(=O)NCCCCCCCCn1cnc2c(N)nc3ccccc3c21 [Example 252, N-[8-(4-amino-1H-imidazo[4,5-c]quinolin-1-yl)octyl]methanesulfonamide] | 0.37 µM | 1.11 µM
189 to 191 °C | COCCc1nc2c(N)nc3ccccc3c2n1CCCNS(=O)(=O)c1ccc(C)cc1 [Example 253, N-{3-[4-amino-2-(2-methoxyethyl)-1H-imidazo[4,5-c]quinolin-1-yl]propyl}-4-methylbenzenesulfonamide] | 0.04 µM | 0.12 µM
167 to 167.8 °C | CCCCCc1nc2c(N)nc3c(c2n1CCCCNS(C)(=O)=O)CCCC3 [Example 254, N-[4-(4-amino-2-pentyl-6,7,8,9-tetrahydro-1H-imidazo[4,5-c]quinolin-1-yl)butyl]methanesulfonamide] | 0.01 µM | 1.11 µM
210 to 215 °C | COCCc1nc2c(N)nc3ccccc3c2n1CCCNS(=O)(=O)c1cccc2c(N(C)C)cccc12 [Example 257, N-{3-[4-amino-2-(2-methoxyethyl)-1H-imidazo[4,5-c]quinolin-1-yl]propyl}-5-(dimethylamino)naphthalene-1-sulfonamide] | 1.11 µM | 3.33 µM
236 to 238 °C | Cc1nc2c(N)nc3ccccc3c2n1CCCNS(C)(=O)=O [Example 258, N-[3-(4-amino-2-methyl-1H-imidazo[4,5-c]quinolin-1-yl)propyl]methanesulfonamide] | 0.37 µM | 10 µM
